The source of these data is patent US20180000136A1, “BIOLOGICAL INORGANIC COMPOUND COMPLEX HAVING REDUCED OXYGEN AND HIGH REDUCING ABILITY” (priority 2011, published 2018).

The conditions of series [1]: medication of Graves' disease; Non-patent documents 1 and 2; cited from earlier work.
Series [2] in a line: Degradation of H2O2 in a cell-free system (Amplex red). Format: biochemical. The note with it: 20 μM H2O2, 30 min at 37° C. The protocol:
Then, Amplex red (Invitrogen) is added and incubated for 30 min in a dark room. The absorbance at 560 nm is measured by a microplate reader (Molecular Devices, Sunnyvale, Calif.).

For a further series, the target named is LPO-H2O2 reaction (Bos taurus, UniProt P80025). Nature of the series: Compound II formation from the peroxidase-H2O2 reaction (OD 430 nm). In kind it is biochemical. The note with it: KI at 1 μM. An excerpt:
Compound II, however, is relatively stable and can be measured at OD of 430 nm. The compound II level is well maintained after mixing LPO and H2O2 (Referring to FIG. 28). […] Since the compound II is derived from the compound I, the inhibition of compound I is also understandable.

In the case of `Cn1cc[nH]c1=S` [MMI, methimazole], the side-effects entry in series [1] is “an allergic reaction, an increase of a variety of enzyme levels in liver, a joint pain and an agranulocytosis in case of a severe condition”. In addition, the “degradation of H2O2” value in series [2] is on record as “can degrade H2O2 although higher concentration of MMI is required”.
As to `[I-].[K+]` [KI], on LPO-H2O2 reaction, the “compound II formation” value is “partially inhibits”.
Turning to `CCCc1cc(=O)[nH]c(=S)[nH]1` [PTU, propylthiouracil], in series [1], the side-effects entry is “severe liver damage”.
